# Reference: publication PMC4669789, “Selective inhibition of HDAC8 decreases neuroblastoma growth in vitro and in vivo and enhances retinoic acid-mediated differentiation” (Cell Death & Disease, 2015)
# Assays:
# [1] = biological target: HDAC1 (Homo sapiens, UniProt Q13547); test: In vitro HDAC activity assay (Reaction Biology); format: biochemical; conditions: cell-free; symbol; read-out: IC50 values of HDAC8 inhibitors, HDAC1
# [2] = biological target: T1, HDAC11 (Homo sapiens, UniProt Q96DB2); test: In vitro HDAC activity assay (Reaction Biology); format: biochemical; conditions: cell-free; read-out: IC50 values of HDAC8 inhibitors, HDAC11
# T1 sequence (Q96DB2 14-326 limits assumed): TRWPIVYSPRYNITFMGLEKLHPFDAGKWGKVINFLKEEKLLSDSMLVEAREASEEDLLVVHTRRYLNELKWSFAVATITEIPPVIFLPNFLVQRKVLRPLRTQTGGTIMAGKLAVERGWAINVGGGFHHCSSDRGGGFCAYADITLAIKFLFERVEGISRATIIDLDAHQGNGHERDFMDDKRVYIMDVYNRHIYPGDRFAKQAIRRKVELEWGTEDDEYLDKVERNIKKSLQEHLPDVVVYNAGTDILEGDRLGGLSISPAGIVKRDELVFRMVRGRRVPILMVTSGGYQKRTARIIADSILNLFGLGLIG
# Method: (§1) Peptide substrate was conjugated with AMC. […] The HDAC reaction was performed at 30 °C for 2 h before adding the developer reagent. The free AMC was detected with excitation of 360 nm and emission 460 nm at kinetic mode for 90 min. IC50 values were calculated with GraphPad Prism version 3.0a (GraphPad Software Inc., San Diego, CA, USA).
# [3] = biological target: T2, HDAC6 (Homo sapiens, UniProt Q9UBN7); test: In vitro HDAC activity assay (Reaction Biology); format: biochemical
# T2 sequence (Q9UBN7 1-1215): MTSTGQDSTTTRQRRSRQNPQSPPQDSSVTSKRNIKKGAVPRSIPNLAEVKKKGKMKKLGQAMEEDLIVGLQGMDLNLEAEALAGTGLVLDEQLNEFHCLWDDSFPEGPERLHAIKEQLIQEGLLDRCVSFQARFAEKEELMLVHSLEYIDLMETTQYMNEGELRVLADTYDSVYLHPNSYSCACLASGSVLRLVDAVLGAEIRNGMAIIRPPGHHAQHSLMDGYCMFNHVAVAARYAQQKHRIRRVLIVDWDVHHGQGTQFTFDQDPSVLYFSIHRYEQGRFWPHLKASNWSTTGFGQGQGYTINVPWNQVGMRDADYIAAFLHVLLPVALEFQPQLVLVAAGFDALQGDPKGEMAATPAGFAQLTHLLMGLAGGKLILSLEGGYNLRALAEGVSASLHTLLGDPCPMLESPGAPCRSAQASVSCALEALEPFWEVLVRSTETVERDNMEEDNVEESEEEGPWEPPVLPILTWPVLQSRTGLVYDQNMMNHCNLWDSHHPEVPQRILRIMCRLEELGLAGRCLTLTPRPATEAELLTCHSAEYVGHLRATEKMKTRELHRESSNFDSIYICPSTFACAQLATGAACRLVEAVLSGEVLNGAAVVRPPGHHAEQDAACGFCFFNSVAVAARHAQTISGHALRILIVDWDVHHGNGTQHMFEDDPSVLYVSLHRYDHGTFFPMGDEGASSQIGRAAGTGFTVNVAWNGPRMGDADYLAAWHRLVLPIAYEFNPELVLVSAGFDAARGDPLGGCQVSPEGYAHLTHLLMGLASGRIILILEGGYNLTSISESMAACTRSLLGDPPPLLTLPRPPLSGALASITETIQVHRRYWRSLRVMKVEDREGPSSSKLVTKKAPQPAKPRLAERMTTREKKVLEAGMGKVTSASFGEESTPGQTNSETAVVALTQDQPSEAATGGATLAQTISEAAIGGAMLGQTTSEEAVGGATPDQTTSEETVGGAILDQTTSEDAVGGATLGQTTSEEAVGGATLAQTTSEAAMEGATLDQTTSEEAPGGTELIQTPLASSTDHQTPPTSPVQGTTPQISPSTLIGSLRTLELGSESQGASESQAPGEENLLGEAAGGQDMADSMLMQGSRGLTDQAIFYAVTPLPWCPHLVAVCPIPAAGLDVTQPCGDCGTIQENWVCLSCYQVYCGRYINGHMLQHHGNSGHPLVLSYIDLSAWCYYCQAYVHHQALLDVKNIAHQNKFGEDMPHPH
# Method: as §1
# [4] = test system: PBMCs; test: Whole lysine acetylation in PBMC after intraperitoneal administration (FACS); format: in vivo, mouse; conditions: 50 mg/kg/d intraperitoneal; solvent 32.1
# Method: Both inhibitors were intraperitoneally injected into NMRI Foxn1 nude mice in increasing doses from 40 up to 400 mg/kg per day for 2 × 5 days. Each dose was tested in a cohort of three animals. Resulting MTDs were validated within cohorts of eight animals for each inhibitor. […] As a reference, the blood of 12 untreated NMRI Foxn1 nude mice was analyzed. […] Vorinostat was used as a control for unselective HDAC inhibition.
# Cells were permeabilized by incubation with 50 μg/ml digitonin for 6 min at RT. Cells were incubated with primary antibody overnight at 4 °C. After staining with Cy3-conjugated anti-rabbit antibody, cells were analyzed by FACS using CellQuest software (BD Biosciences, San Jose, CA, USA).
# [5] = test system: BE(2)-C cells; test: Western blot of histone 4, α-tubulin and SMC3 acetylation; format: cell-based, human
# Method: Western blot analysis was performed as described previously.[15] For detection of phosphoproteins, PhosStop (Roche, Penzberg, Germany) was added to the lysis buffer.
# [6] = test system: PBMC; test: Western blot of histone 4 and α-tubulin acetylation in PBMC of treated mice; format: in vivo, mouse; conditions: MTD concentrations, 2 h after intraperitoneal injection
# Method: Whole blood (100 μl) was collected from the femoral vein of untreated athymic NMRI nude mice (HsdCpb:NMRI-Foxn1^nu; Harlan Laboratories Inc.), and respective animals were killed 2 h after intraperitoneal injection of substances. For the analysis of whole acetylation levels, mice were killed at half-life time of the inhibitors. Whole blood with heparin was added to RBC lysis buffer (diluted 1 : 10) (BioLegend, San Diego, CA, USA) at a ratio of 1 : 4. Next, red blood cell lysis was performed according to the manufacturer's instructions. PBMCs were lysed in SDS lysis buffer for western blot or processed for FACS analysis.
# Western blot analysis was performed as described previously.[15] For detection of phosphoproteins, PhosStop (Roche, Penzberg, Germany) was added to the lysis buffer. The following antibodies were used for detection: anti-HDAC8 (H-145) (polyclonal; Santa Cruz, Santa Cruz, CA, USA), anti-acetyl tubulin (clone 6-11B-1; Sigma), anti-acetyl-histone H4 (polyclonal; Upstate, Lake Placid, NY, USA), anti-acetyl-SMC3 (provided by Prof. K Shirahige, University of Tokyo, Tokyo, Japan), anti p21^waf1/cip1 (clone CP74; Merck), anti-Trk (C-14) (polyclonal; Santa Cruz), anti-neurofilament-M (polyclonal; Merck), anti-β-actin (clone AC-15; Sigma), anti-P-CREB (Ser133; Cell Signaling, Danvers, MA, USA), anti-CREB (48H2; Cell Signaling) and anti-GAPDH (clone 6C5; Merck).
# [7] = working concentrations: 40 μM Cpd2, 4 μM PCI-34051 and PCI-48000
# Chain of HDAC1 (Q13547 9-321 limits assumed): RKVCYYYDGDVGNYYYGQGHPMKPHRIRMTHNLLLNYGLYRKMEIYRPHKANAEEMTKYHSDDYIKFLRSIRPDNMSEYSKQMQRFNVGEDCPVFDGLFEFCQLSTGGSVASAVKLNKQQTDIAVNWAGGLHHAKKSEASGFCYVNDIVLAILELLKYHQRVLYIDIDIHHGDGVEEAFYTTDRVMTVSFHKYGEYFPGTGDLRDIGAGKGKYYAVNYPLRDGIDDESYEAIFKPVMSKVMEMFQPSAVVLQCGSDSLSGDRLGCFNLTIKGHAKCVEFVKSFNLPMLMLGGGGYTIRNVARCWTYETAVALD
compound,measurement,setting,value
"O=C(NO)c1cccc2ccccc12 [Cpd2, 1-naphthohydroxamic acid]",IC50,[1],> 75.6 µM
same,IC50,[2],> 75.6 µM
same,IC50,"[3]; cell-free, read-out: IC50 values of HDAC8 inhibitors, HDAC6",75.6 µM
same,concentrations above which HDAC6 and HDAC1 are potential off-target HDACs,[3]; from cell-free assays of HDACs 1–11,above 75 μM
same,"whole acetyl-lysine mean fluorescent values (Blank-corrected), PBMCs",[4],39.2
same,tubulin acetylation (HDAC6 off-target activity),"[5]; increasing concentrations far above IC50 values (up to 200 μM Cpd2, 100 μM PCI-34051)",induced tubulin acetylation
same,SMC3 acetylation (HDAC8 substrate),[5]; [7],increase in acetylation level
same,histone 4 acetylation (HDAC1-3 substrate),[5]; [7],absence of HDAC1-3 substrate acetylation
same,tubulin acetylation (HDAC6 substrate),[5]; [7],absence of HDAC6 substrate acetylation
same,tubulin and histone 4 acetylation in PBMC,[6],absence of tubulin acetylation and absence of histone 4 acetylation
